The source of these data is ChEMBL document CHEMBL1137881, “Synthesis of acyloxymethyl ester prodrugs of the transferable protein farnesyl transferase substrate farnesyl methylenediphosphonate” (Bioorg Med Chem Lett, 2004).

The structures appear in SMILES notation.

The assay has as its target Protein farnesyltransferase (Homo sapiens, UniProt P49354+P49356). The assay can be described thus: Inhibition of Farnesyltransferase. It counts as protein-complex assay.

Broadly, the IC50 is the concentration that inhibits the measured activity by half. A high value points to lower potency.

Consider `CC(C)=CCC/C(C)=C/CC/C(C)=C/COP(=O)(O)CP(=O)(O)O` [FARNESYL METHYLENEDIPHOSPHONATE], for which the IC50 is 160 nM.
